# Assay results as given in patent US10189841B2, “Purinones as ubiquitin-specific protease 1 inhibitors” (Forma Therapeutics, Inc., priority 2015, dated 2019).
# Biological target: USP1 (construct USP1 (I-785, GG670, 671AA)/UAF1 (I-677)-Flag) (Homo sapiens (Human), UniProt O94782, G670A/G671A)
# Assay: Ubiquitin-Rhodamine 110 assay for USP1 activity
# Assay type: biochemical
# Conditions: USP1/UAF1 25 pM, Ub-Rh110 25 nM, 30 min preincubation
# Procedure, shortened: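 Two formats with the USP1/UAF1 complex and 25 nM ubiquitin-rhodamine 110 in pH 8.0 Tris buffer with calcium, glutathione and detergent. Single-point screening used 10 µM, 100 pM enzyme and 45 min. Inhibition was set against no-enzyme and DMSO wells.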
# Chain of USP1 (construct USP1 (I-785, GG670, 671AA)/UAF1 (I-677)-Flag) (O94782 whole entry G670A/G671A): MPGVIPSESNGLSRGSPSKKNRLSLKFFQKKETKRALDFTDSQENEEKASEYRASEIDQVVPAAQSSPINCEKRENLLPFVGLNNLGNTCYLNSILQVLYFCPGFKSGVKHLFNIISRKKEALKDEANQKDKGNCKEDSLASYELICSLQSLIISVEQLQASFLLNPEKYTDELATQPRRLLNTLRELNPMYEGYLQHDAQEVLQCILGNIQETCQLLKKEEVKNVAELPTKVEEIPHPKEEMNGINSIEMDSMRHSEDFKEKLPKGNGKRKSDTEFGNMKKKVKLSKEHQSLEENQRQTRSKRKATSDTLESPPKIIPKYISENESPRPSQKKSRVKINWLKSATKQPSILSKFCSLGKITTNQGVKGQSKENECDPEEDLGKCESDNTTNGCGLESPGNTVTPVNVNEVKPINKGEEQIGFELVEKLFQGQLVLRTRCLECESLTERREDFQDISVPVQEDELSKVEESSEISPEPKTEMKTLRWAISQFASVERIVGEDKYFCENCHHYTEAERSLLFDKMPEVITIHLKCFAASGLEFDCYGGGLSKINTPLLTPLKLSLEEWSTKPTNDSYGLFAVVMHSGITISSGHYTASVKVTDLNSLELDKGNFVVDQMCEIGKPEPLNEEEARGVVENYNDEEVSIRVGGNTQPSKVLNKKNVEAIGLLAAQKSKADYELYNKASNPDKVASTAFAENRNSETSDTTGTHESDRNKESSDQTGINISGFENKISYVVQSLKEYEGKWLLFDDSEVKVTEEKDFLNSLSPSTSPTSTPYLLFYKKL
# Chain of USP1 (construct USP1 (I-785, GG670, 671AA)/UAF1 (I-677)-Flag) (Q8TAF3 whole entry partner): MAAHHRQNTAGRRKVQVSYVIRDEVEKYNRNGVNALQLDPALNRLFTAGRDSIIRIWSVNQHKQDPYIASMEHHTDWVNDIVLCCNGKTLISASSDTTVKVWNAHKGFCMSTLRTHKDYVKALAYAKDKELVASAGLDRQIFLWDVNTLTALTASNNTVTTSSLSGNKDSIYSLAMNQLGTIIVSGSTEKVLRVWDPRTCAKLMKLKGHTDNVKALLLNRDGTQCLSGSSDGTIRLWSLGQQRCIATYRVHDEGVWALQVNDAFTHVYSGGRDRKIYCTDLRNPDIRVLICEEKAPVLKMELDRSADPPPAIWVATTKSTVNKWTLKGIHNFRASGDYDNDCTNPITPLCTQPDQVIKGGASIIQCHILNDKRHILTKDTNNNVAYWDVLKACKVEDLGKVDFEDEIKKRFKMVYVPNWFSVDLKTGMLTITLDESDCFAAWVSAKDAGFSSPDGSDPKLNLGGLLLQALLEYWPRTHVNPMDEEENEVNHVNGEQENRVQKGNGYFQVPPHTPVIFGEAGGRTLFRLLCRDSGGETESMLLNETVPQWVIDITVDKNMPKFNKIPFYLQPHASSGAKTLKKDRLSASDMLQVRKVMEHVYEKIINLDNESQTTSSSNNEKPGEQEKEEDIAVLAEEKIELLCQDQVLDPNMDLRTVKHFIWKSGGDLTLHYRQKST
row,SMILES,IC50 [nM]
1,"CC(C)c1ccccc1-c1ncc2[nH]c(=O)n(Cc3ccc(-c4ncc[nH]4)cc3)c2n1 [Compound I-437, 9-(4-(1H-imidazol-2-yl)benzyl)-2-(2-isopropylphenyl)-7,9-dihydro-8H-purin-8-one]",< 50
2,"CC(C)c1ncccc1-c1ncc2[nH]c(=O)n(Cc3ccc(-c4nc(C(F)(F)F)cn4C4CN(C)C4)cc3)c2n1 [Compound I-438, 2-(2-Isopropylpyridin-3-yl)-9-(4-(1-(1-methylazetidin-3-yl)-4-(trifluoromethyl)-1H-imidazol-2-yl)benzyl)-7,9-dihydro-8H-purin-8-one]",< 50
3,"CC(C)c1ccccc1-c1ncc2[nH]c(=O)n(Cc3ccc(-n4ccc(C5CCN(C)CC5)n4)cc3)c2n1 [Compound I-439, 2-(2-isopropylphenyl)-9-(4-(3-(1-methylpiperidin-4-yl)-1H-pyrazol-1-yl)benzyl)-7,9-dihydro-8H-purin-8-one]",50 to 200
4,"CC(C)c1ccccc1-c1ncc2[nH]c(=O)n(Cc3ccc(-n4ccc(C5CCN(C)C5)n4)cc3)c2n1 (stereo not drawn) [Compound I-440, 2-(2-isopropylphenyl)-9-(4-(3-(1-methylpyrrolidin-3-yl)-1H-pyrazol-1-yl)benzyl)-7,9-dihydro-8H-purin-8-one]",200 to 2000
5,"CC(C)c1c(F)cccc1-c1ncc2[nH]c(=O)n(Cc3ccc(-n4ccc(C5CCN(C)CC5)n4)cc3)c2n1 [Compound I-441, 2-(3-fluoro-2-isopropylphenyl)-9-(4-(3-(1-methylpiperidin-4-yl)-1H-pyrazol-1-yl)benzyl)-7,9-dihydro-8H-purin-8-one]",50 to 200
6,"CC(C)c1ncccc1-c1ncc2[nH]c(=O)n(Cc3ccc(-n4ccc(C5CCN(C)CC5)n4)cc3)c2n1 [Compound I-442, 2-(2-isopropylpyridin-3-yl)-9-(4-(3-(1-methylpiperidin-4-yl)-1H-pyrazol-1-yl)benzyl)-7,9-dihydro-8H-purin-8-one]",> 2000
7,"CN1CCC(c2ccn(-c3ccc(Cn4c(=O)[nH]c5cnc(-c6cccnc6OCC(F)(F)F)nc54)cc3)n2)CC1 [Compound I-443, 9-(4-(3-(1-methylpiperidin-4-yl)-1H-pyrazol-1-yl)benzyl)-2-(2-(2,2,2-trifluoroethoxy)pyridin-3-yl)-7,9-dihydro-8H-purin-8-one]",200 to 2000
8,"CC(C)c1ccccc1-c1ncc2[nH]c(=O)n(Cc3ccc(-n4ccc(C5CCCN(C)C5)n4)cc3)c2n1 (stereo not drawn) [Compound I-444, 2-(2-isopropylphenyl)-9-(4-(3-(1-methylpiperidin-3-yl)-1H-pyrazol-1-yl)benzyl)-7,9-dihydro-8H-purin-8-one]",< 50
9,"CC(C)c1ccccc1-c1ncc2[nH]c(=O)n(Cc3ccc(-c4nc(C5CCN(C)CC5)cn4C)cc3)c2n1 [Compound I-445, 2-(2-isopropylphenyl)-9-(4-(1-methyl-4-(1-methylpiperidin-4-yl)-1H-imidazol-2-yl)benzyl)-7,9-dihydro-8H-purin-8-one]",< 50
10,"CC(C)c1ccccc1-c1ncc2[nH]c(=O)n(Cc3ccc(-c4ncc(C5CCN(C)CC5)n4C)cc3)c2n1 [Compound I-446, 2-(2-isopropylphenyl)-9-(4-(1-methyl-5-(1-methylpiperidin-4-yl)-1H-imidazol-2-yl)benzyl)-7,9-dihydro-8H-purin-8-one]",< 50
11,"CC(C)c1ccccc1-c1ncc2[nH]c(=O)n(Cc3ccc(-c4nc(C(F)(F)F)cn4C4CN(C)C4)cc3)c2n1 [Compound I-447, 2-(2-isopropylphenyl)-9-(4-(1-(1-methylazetidin-3-yl)-4-(trifluoromethyl)-1H-imidazol-2-yl)benzyl)-7,9-dihydro-8H-purin-8-one]",< 50
12,"CC(C)c1ccccc1-c1ncc2c(n1)n(Cc1ccc(-c3nc(C(F)(F)F)cn3C3CN(C)C3)cc1)c(=O)n2C [Compound I-448, 2-(2-isopropylphenyl)-7-methyl-9-(4-(1-(1-methylazetidin-3-yl)-4-(trifluoromethyl)-1H-imidazol-2-yl)benzyl)-7,9-dihydro-8H-purin-8-one]",< 50
13,"CC(C)c1ccccc1-c1ncc2c(n1)n(CC1CCN(S(=O)(=O)c3cccnc3)CC1)c(=O)n2C [Compound I-449, 2-(2-isopropylphenyl)-7-methyl-9-((1-(pyridin-3-ylsulfonyl)piperidin-4-yl)methyl)-7,9-dihydro-8H-purin-8-one]",> 2000
14,"CC(C)c1ccccc1-c1ncc2c(n1)n(CC1CCN(S(=O)(=O)C(C)C)CC1)c(=O)n2C [Compound I-450, 2-(2-isopropylphenyl)-9-((1-(isopropylsulfonyl)piperidin-4-yl)methyl)-7-methyl-7,9-dihydro-8H-purin-8-one]",50 to 200
15,"CC(C)c1ccccc1-c1ncc2c(n1)n(CC1CCN(S(=O)(=O)c3nccn3C)CC1)c(=O)n2C [Compound I-451, 2-(2-isopropylphenyl)-7-methyl-9-((1-((1-methyl-1H-imidazol-2-yl)sulfonyl)piperidin-4-yl)methyl)-7,9-dihydro-8H-purin-8-one]",200 to 2000
16,"CC(C)c1ccccc1-c1ncc2[nH]c(=O)n(C3CCC34CN(S(=O)(=O)C(C)C)C4)c2n1 (stereo not drawn) [Compound I-452, 2-(2-isopropylphenyl)-9-(2-(isopropylsulfonyl)-2-azaspiro[3.3]heptan-5-yl)-7,9-dihydro-8H-purin-8-one]",200 to 2000
17,"CC(C)c1ccccc1-c1ncc2c(n1)n(Cc1ccc(NS(=O)(=O)c3ccn(C)n3)cc1)c(=O)n2C [Compound I-453, N-(4-((2-(2-isopropylphenyl)-7-methyl-8-oxo-7,8-dihydro-9H-purin-9-yl)methyl)phenyl)-1-methyl-1H-pyrazole-3-sulfonamide]",> 2000
18,"CC(C)c1ccccc1-c1ncc2c(n1)n(Cc1ccc(NS(=O)(=O)c3nccn3C)cc1)c(=O)n2C [Compound I-454, N-(4-((2-(2-isopropylphenyl)-7-methyl-8-oxo-7,8-dihydro-9H-purin-9-yl)methyl)phenyl)-1-methyl-1H-imidazole-2-sulfonamide]",200 to 2000
19,"Cc1nc(S(=O)(=O)Nc2ccc(Cn3c(=O)n(C)c4cnc(-c5ccccc5C(C)C)nc43)cc2)cn1C [Compound I-455, N-(4-((2-(2-isopropylphenyl)-7-methyl-8-oxo-7,8-dihydro-9H-purin-9-yl)methyl)phenyl)-1,2-dimethyl-lH-imidazole-4-sulfonamide]",> 2000
20,"CC(C)c1ccccc1-c1ncc2c(n1)n(Cc1ccc(N(C)S(=O)(=O)c3ccn(C)n3)cc1)c(=O)n2C [Compound I-456, N-(4-((2-(2-isopropylphenyl)-7-methyl-8-oxo-7,8-dihydro-9H-purin-9-yl)methyl)phenyl)-N,1-dimethyl-1H-pyrazole-3-sulfonamide]",50 to 200
21,"CC(C)c1ccccc1-c1ncc2c(n1)n(Cc1ccc(N(C)S(=O)(=O)c3nccn3C)cc1)c(=O)n2C [Compound I-457, N-(4-((2-(2-isopropylphenyl)-7-methyl-8-oxo-7,8-dihydro-9H-purin-9-yl)methyl)phenyl)-N,1-dimethyl-1H-imidazole-2-sulfonamide]",50 to 200
22,"Cc1nc(S(=O)(=O)N(C)c2ccc(Cn3c(=O)n(C)c4cnc(-c5ccccc5C(C)C)nc43)cc2)cn1C [Compound I-458, N-(4-((2-(2-isopropylphenyl)-7-methyl-8-oxo-7,8-dihydro-9H-purin-9-yl)methyl)phenyl)-N,1,2-trimethyl-1H-imidazole-4-sulfonamide]",200 to 2000
23,"CC(C)c1ccccc1-c1ncc2c(n1)n(Cc1ccc(N(C)S(C)(=O)=O)cc1)c(=O)n2C [Compound I-459, N-(4-((2-(2-isopropylphenyl)-7-methyl-8-oxo-7,8-dihydro-9H-purin-9-yl)methyl)phenyl)-N-methylmethanesulfonamide]",200 to 2000
24,"CC(C)c1ccccc1-c1ncc2[nH]c(=O)n(CC3(F)CCN(S(=O)(=O)C4CC4)CC3)c2n1 [Compound I-460, 9-((1-(cyclopropylsulfonyl)-4-fluoropiperidin-4-yl)methyl)-2-(2-isopropylphenyl)-7,9-dihydro-8H-purin-8-one]",200 to 2000
25,"CC(C)c1ccccc1-c1ncc2[nH]c(=O)n(CC3CCN(S(=O)(=O)C4CC4)CC3)c2n1 [Compound I-461, 9-((1-(cyclopropylsulfonyl)piperidin-4-yl)methyl)-2-(2-isopropylphenyl)-7,9-dihydro-8H-purin-8-one]",50 to 200
26,"CC(C)C(=O)N1CCC(Cn2c(=O)n(C)c3cnc(-c4ccccc4C(C)C)nc32)CC1 [Compound I-462, 9-((1-isobutyrylpiperidin-4-yl)methyl)-2-(2-isopropylphenyl)-7-methyl-7,9-dihydro-8H-purin-8-one]",> 2000
27,"CC(=O)N1CCC(c2ccn(-c3ccc(Cn4c(=O)[nH]c5cnc(-c6ccccc6C(C)C)nc54)cc3)n2)CC1 [Compound I-463, 9-(4-(3-(1-acetylpiperidin-4-yl)-1H-pyrazol-1-yl)benzyl)-2-(2-isopropylphenyl)-7,9-dihydro-8H-purin-8-one]",< 50
28,"CC(=O)N1CCC(c2ccn(-c3ccc(Cn4c(=O)[nH]c5cnc(-c6cccc(F)c6C(C)C)nc54)cc3)n2)CC1 [Compound I-464, 9-(4-(3-(1-acetylpiperidin-4-yl)-1H-pyrazol-1-yl)benzyl)-2-(3-fluoro-2-isopropylphenyl)-7,9-dihydro-8H-purin-8-one]",50 to 200
29,"CC(=O)N1CCC(c2ccn(-c3ccc(Cn4c(=O)[nH]c5cnc(-c6cccnc6C(C)C)nc54)cc3)n2)CC1 [Compound I-465, 9-(4-(3-(1-acetylpiperidin-4-yl)-1H-pyrazol-1-yl)benzyl)-2-(2-isopropylpyridin-3-yl)-7,9-dihydro-8H-purin-8-one]",200 to 2000
30,"CC(=O)N1CCC(c2ccn(-c3ccc(Cn4c(=O)[nH]c5cnc(-c6cccnc6OCC(F)(F)F)nc54)cc3)n2)CC1 [Compound I-466, 9-(4-(3-(1-acetylpiperidin-4-yl)-1H-pyrazol-1-yl)benzyl)-2-(2-(2,2,2-trifluoroethoxy)pyridin-3-yl)-7,9-dihydro-8H-purin-8-one]",200 to 2000
